Assay results reported in BindingDB's records for patent US20230286943 (Sanofi, 2023).

Target: T1, Interleukin-17A (Homo sapiens, UniProt Q16552)
T1 sequence (Q16552 whole entry): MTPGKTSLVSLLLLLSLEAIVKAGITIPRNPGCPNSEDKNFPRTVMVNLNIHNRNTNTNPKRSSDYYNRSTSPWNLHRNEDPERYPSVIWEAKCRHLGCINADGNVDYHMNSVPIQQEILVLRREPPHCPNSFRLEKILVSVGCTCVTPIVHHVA
Experiment: AlphaLISA Assay
Protocol: The ability of the compounds to block binding of IL-17A to its receptor, IL-17RA, was analysed in a competition assay using AlphaLISA technology (Perkin Elmer). The assay is a bead based AlphaLISA where the IL-17RA is captured on the acceptor bead via an Fc tag and IL-17A is captured on the streptavidin donor bead via a biotinylated anti-IL-17A antibody.Assay buffer was prepared by adding 0.05% Tween-20 (v/v) and 0.1% BSA to Phosphate Buffered Saline (PBS). The assay was carried out in 384-well white low volume plates (Corning 4512). 10 μL of a 7.5 nM stock of human recombinant IL-17A (R&D Systems 7955-IL/CF) diluted in assay buffer was dispensed into the assay plate and compounds or DMSO vehicle control were added in a volume of 75 nL using a D300 dispenser (Hewlett Packard). The compounds were pre-incubated with the IL-17A for 24 h at room temperature (or for 30 min, where indicated by * in Table A below) prior to addition of 5 μL of a 5 nM stock of human recombinant IL-17RA/Fc chimera (R&D Systems 177-IR-100) diluted in assay buffer. […] The luminescence signal was measured using an Enspire plate reader (Perkin Elmer) with excitation at 680 nm and emission at 615 nm. Data were analysed using GraphPad Prism and fitted to a 4-parameter logistic equation.

- IC50: 794 nM
SMILES: Cc1nnc(C)n1-c1ccc(NC(=O)[C@@H](NC(=O)c2ccnn2C)C2CCCCCC2)nc1 [US20230286943, Example 62]
